Data as given in publication PMC4697445 (Journal of medicinal chemistry, 2015).
Where two headings read alike, the source gives them in different places.

How the values were obtained:
PDE10A [1] = conditions: cited from earlier work
[2] = cited from earlier work
PDE10A [3] = test system: PDE10A
Biodistribution in rats = format: in vivo, male Sprague-Dawley rats; conditions: rat; for blood uptake / bone uptake / brain uptake / fat uptake / kidney uptake / liver uptake / muscle uptake: iv, mean ± SD, n = 4
PDE10A [4] = target: PDE10A (Rattus norvegicus, UniProt Q9QYJ6); conditions: by 30 min p.i.
[5] = for % peak 1 (radiometabolite, retention time ~3.5 min) / % peak 2 (radiometabolite, retention time ~7.5 min): NHP plasma

Sequence of PDE10A (Rattus norvegicus, UniProt Q9QYJ6) (Q9QYJ6 whole entry): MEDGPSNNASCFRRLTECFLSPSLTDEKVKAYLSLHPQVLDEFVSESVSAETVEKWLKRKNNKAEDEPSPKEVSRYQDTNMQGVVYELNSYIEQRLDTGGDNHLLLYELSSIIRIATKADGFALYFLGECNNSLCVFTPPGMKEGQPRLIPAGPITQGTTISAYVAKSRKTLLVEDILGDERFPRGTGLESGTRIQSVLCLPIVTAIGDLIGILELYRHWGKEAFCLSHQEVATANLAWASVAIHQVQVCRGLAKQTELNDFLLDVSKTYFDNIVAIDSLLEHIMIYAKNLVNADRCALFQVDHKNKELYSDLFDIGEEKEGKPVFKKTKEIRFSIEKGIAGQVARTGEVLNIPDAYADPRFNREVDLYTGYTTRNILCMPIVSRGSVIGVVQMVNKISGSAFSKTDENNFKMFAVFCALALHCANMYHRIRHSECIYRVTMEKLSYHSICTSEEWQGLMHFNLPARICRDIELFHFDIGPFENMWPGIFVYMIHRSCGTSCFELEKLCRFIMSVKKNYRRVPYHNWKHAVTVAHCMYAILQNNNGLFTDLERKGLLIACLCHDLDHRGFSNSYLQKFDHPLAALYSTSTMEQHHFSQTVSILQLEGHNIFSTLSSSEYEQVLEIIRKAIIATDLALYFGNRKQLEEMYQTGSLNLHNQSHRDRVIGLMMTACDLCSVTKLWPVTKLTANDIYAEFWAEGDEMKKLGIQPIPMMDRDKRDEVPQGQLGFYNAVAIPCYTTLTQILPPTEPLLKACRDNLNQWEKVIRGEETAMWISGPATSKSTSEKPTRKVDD

In the case of `Cn1cc(-c2ccncc2)c(-c2ccc(OCc3ccc4ccccc4n3)cc2)n1` [[^11C]MP-10], the brain uptake ([2]; 5 min p.i.) is listed as 0.162 ± 0.025 %ID/g, the brain uptake ([2]; 30 min p.i.) is listed as 0.066 ± 0.008 %ID/g and the brain uptake ([2]; 60 min p.i.) is listed as […].
With `Cn1cc(-c2ccncc2)c(-c2ccc(OCc3cc(OCC[18F])c4ccccc4n3)cc2)n1` [[^18F]18d, 4-((2-Fluoro-^18F)ethoxy)-2-((4-(1-methyl-4-(pyridin-4-yl)-1H-pyrazol-3-yl)phenoxy)methyl)quinoline] the “ratios of uptake in the striatum vs nontarget brain regions” value (PDE10A [3]; cynomolgus macaque microPET, by 40 min p.i.) was greater than 3 fold, the “visualization of striatum in microPET” value (PDE10A [3]; cynomolgus macaque, summed images 0 to 180 min) was “clear visualization of the PDE10A-enriched striatum” and the “in vivo metabolic defluorination (bone activity)” value (Biodistribution in rats; 5 to 60 min p.i.) was “appeared more stable to in vivo defluorination”. The blood uptake (Biodistribution in rats; 5 min p.i.) was 0.362 ± 0.048 %ID/g, the bone uptake (Biodistribution in rats; 5 min p.i.) was 0.189 ± 0.004 %ID/g and the brain uptake (Biodistribution in rats; 5 min p.i.) was 0.118 ± 0.012 %ID/g. For the same molecule, the fat uptake (Biodistribution in rats; 5 min p.i.) was 0.213 ± 0.007 %ID/g, the kidney uptake (Biodistribution in rats; 5 min p.i.) was 2.200 ± 0.158 %ID/g and the liver uptake (Biodistribution in rats; 5 min p.i.) was 6.88 ± 1.15 %ID/g. The muscle uptake (Biodistribution in rats; 5 min p.i.) was 0.247 ± 0.031 %ID/g, the blood uptake (Biodistribution in rats; 30 min p.i.) was 0.226 ± 0.073 %ID/g and the bone uptake (Biodistribution in rats; 30 min p.i.) was 0.091 ± 0.012 %ID/g. For the same molecule, the brain uptake (Biodistribution in rats; 30 min p.i.) was 0.078 ± 0.009 %ID/g, the fat uptake (Biodistribution in rats; 30 min p.i.) was 0.302 ± 0.033 %ID/g and the kidney uptake (Biodistribution in rats; 30 min p.i.) was 1.055 ± 0.218 %ID/g. For the same molecule, the liver uptake (Biodistribution in rats; 30 min p.i.) was 6.98 ± 0.99 %ID/g, the muscle uptake (Biodistribution in rats; 30 min p.i.) was 0.134 ± 0.019 %ID/g and the blood uptake (Biodistribution in rats; 60 min p.i.) was 0.215 ± 0.008 %ID/g. It also gave a bone uptake (Biodistribution in rats; 60 min p.i.) of 0.142 ± 0.001 %ID/g, a brain uptake (Biodistribution in rats; 60 min p.i.) of 0.101 ± 0.002 %ID/g and a fat uptake (Biodistribution in rats; 60 min p.i.) of 0.259 ± 0.025 %ID/g. The kidney uptake (Biodistribution in rats; 60 min p.i.) was 0.765 ± 0.153 %ID/g, the liver uptake (Biodistribution in rats; 60 min p.i.) was 3.29 ± 0.56 %ID/g and the muscle uptake (Biodistribution in rats; 60 min p.i.) was 0.132 ± 0.011 %ID/g. For the same molecule, the “ratio of activity in the striatum versus nontarget brain regions” value (PDE10A [4]) was greater than 2 fold, the “% peak 1 (radiometabolite, retention time ~3.5 min)” value ([5]; 2 min p.i.) was 1% and the “% peak 2 (radiometabolite, retention time ~7.5 min)” value ([5]; 2 min p.i.) was 0%. For the same molecule, the “% peak 1 (radiometabolite, retention time ~3.5 min)” value ([5]; 15 min p.i.) was 4%, the “% peak 2 (radiometabolite, retention time ~7.5 min)” value ([5]; 15 min p.i.) was 0% and the “% peak 1 (radiometabolite, retention time ~3.5 min)” value ([5]; 30 min p.i.) was 7%. For the same molecule, the “% peak 2 (radiometabolite, retention time ~7.5 min)” value ([5]; 30 min p.i.) was 1%, the “% peak 1 (radiometabolite, retention time ~3.5 min)” value ([5]; 60 min p.i.) was 19% and the “% peak 2 (radiometabolite, retention time ~7.5 min)” value ([5]; 60 min p.i.) was 5%. The “% peak 1 (radiometabolite, retention time ~3.5 min)” value ([5]; 90 min p.i.) was 32%, the “% peak 2 (radiometabolite, retention time ~7.5 min)” value ([5]; 90 min p.i.) was 9% and the “radioactivity of arterial blood found in the plasma” value ([5]; plasma separated from packed red cells) was 65–75%.
